Experimental findings from patent US20140221499A1, “NOVEL RODENT CONTROL AGENTS AND USES THEREOF” (priority 2011, published 2014) are described below.

Experiment [1] concerns corticosterone levels in rat plasma. The experiment is described as follows: Plasma corticosterone assay after odor exposure. In kind it is in vivo. The note with it: 30 min exposure, 10% amine or 2% TMT, 1 ml, ±SEM. Here is the method:
Avoidance to 2-phenylethylamine in rats was associated with acute changes in circulating levels of the stress hormone corticosterone.
Plasma corticosterone assay. […] Corticosterone levels were measured in duplicate using a competitive radioactive binding assay as described previously (Pryce C R, Bettschen D, Bahr N I, & Feldon J (2001) Comparison of the effects of infant handling, isolation, and nonhandling on acoustic startle, prepulse inhibition, locomotion, and HPA activity in the adult rat. Behav Neurosci 115(1):71-83).

Another experiment addresses T1, mouse TAAR4 (Mus musculus, UniProt Q5QD15).
T1 construct: Full Taar coding regions were cloned into pcDNA3.1-(Invitrogen); expressed in transfected cells; host or cells: HEK293
T1 sequence (Q5QD15 1-347): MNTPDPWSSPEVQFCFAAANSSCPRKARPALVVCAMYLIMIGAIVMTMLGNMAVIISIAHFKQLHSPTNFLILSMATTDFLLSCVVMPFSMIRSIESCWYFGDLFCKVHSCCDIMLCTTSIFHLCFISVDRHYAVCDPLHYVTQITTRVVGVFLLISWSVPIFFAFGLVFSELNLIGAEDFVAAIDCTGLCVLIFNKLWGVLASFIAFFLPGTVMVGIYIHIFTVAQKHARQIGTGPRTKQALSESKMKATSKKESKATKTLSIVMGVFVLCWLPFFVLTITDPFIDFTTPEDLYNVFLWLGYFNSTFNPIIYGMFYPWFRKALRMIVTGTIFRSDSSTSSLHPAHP
In words: TAAR4 CRE-SEAP reporter gene assay in transfected HEK293 cells. In kind it is cell-based. The note with it: 10 μM.

For a further experiment, the system named is Sprague-Dawley rats. The experiment is described as follows: Open field odor avoidance. The settings on record: ten minute exposure, 12 animals ±SEM; 1 ml urine or 5 μl amine. In kind it is in vivo, rat. Here is the method: We next examined behavioral responses of rodents to 2-phenylethylamine. […] Behaviors of rats in a square-shaped arena were recorded and analyzed following placement of test stimuli in a pseudorandom corner (FIG. 5A). […] Thus, 2-phenylethylamine, in the absence of other predator odor cues, was sufficient to evoke rat avoidance behavior.
Open field behavioral analysis. Rat behavioral responses to odors in the open field were measured as described previously (Fendt M (2006) Exposure to urine of canids and felids, but not of herbivores, induces defensive behavior in laboratory rats. Journal of chemical ecology 32(12):2617-2627) with the following modifications. Adult Sprague-Dawley rats (240-340 g; Janvier, Le Genest St. Isle, France) were placed in the center of a 45 cm×45 cm Plexiglass arena (TSE Systems, Bad Homburg, Germany) equipped with infrared sensors (distance 14 mm, illumination 80-120 lux). The arena contained glass dishes (36 mm) in each corner, with one dish containing test stimuli. Prior to testing, animals were habituated to the arena by introducing them for three consecutive days. […] Location of the rats was automatically recorded using the infrared detectors and analyzed (TSE Systems software). Statistical significance was measured using Wilcoxon Signed Test (**p<0.01; comparison with chance level (25%)). […]

Another experiment has as its target T2, mouse TAAR3 (Mus musculus, UniProt Q5QD16).
T2 construct: Full Taar coding regions were cloned into pcDNA3.1-(Invitrogen); expressed in transfected cells; host or cells: HEK293
T2 sequence (Q5QD16 1-343): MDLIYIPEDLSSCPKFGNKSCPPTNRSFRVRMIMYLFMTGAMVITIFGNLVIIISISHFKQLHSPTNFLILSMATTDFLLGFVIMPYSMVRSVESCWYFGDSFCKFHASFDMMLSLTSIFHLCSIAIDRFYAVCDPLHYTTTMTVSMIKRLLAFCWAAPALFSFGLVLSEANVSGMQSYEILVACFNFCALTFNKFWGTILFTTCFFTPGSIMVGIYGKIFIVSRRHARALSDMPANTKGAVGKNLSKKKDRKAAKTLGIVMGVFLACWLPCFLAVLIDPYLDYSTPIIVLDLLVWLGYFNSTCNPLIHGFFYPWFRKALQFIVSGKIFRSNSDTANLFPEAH
The experiment is described as follows: TAAR3 CRE-SEAP reporter gene assay in transfected HEK293 cells. In kind it is cell-based. Here is the method:
Reporter gene assays were performed on HEK293 cells transfected with mouse TAAR3 and CRE-SEAP.
TAAR functional assays. Reporter gene assays were performed as described (Liberles S D & Buck LB (2006) A second class of chemosensory receptors in the olfactory epithelium. Nature 442(7103):645-650) with the following minor modifications. Test urines were diluted in serum-free media containing penicillin G (100 Units/ml, Invitrogen) and streptomycin sulfate ([…], Invitrogen). SEAP activity is measured as fluorescence resulting from dephosphorylation of a substrate, 4-methylumbelliferyl phosphate. Fluorescence values were obtained using an EnVision plate reader (Perkin Elmer) and are reported directly without normalization. All TAARs, except mouse TAAR3, were expressed as fusion proteins with an N-terminal sequence of bovine rhodopsin (Krautwurst D, Yau K W, & Reed R R (1998) Identification of ligands for olfactory receptors by functional expression of a receptor library. Cell 95(7):917-926).

Experimental for mouse TAAR4: Fluorescence was measured on an EnVision plate reader (Perkin Elmer) and SEAP activity graphed as relative fluorescence of a phosphatase substrate.
HEK293 cells were co-transfected with TAAR expression plasmids and a cAMPdependent reporter gene encoding secreted alkaline phosphatase (CRE-SEAP). Transfected cells were incubated with urine extracts from different mammalian species, and phosphatase activity was quantified with a fluorescent substrate as a reporter for TAAR activation.
Test urines were diluted in serum-free media containing penicillin G (100 Units/ml, Invitrogen) and streptomycin sulfate (100 mg/ml, Invitrogen). SEAP activity is measured as fluorescence resulting from dephosphorylation of a substrate, 4-methylumbelliferyl phosphate. Fluorescence values were obtained using an EnVision plate reader (Perkin Elmer) and are reported directly without normalization.

For `NCCc1ccccc1` [2-phenylethylamine], the “plasma levels of corticosterone” value in experiment [1] was found to be 194 ± 18 ng/mL. Further, the TAAR4 activation result at mouse TAAR4 is listed as “activates TAAR4”. The “percentage of time rats are located in the odor quadrant” value with Sprague-Dawley rats is given as 8.0±2.0%. The EC50 at mouse TAAR3 was approximately 100 µM. Further, the “reduced sensitivity of TAAR3 compared to TAAR4” value on mouse TAAR3 (TAAR3 vs TAAR4) is 30 fold.
